Peptide text beside a SMILES is read from it. * marks the point of attachment. Cbz = O=C(OCc1ccccc1)*
How the values were obtained:
LEMD3 = assay: Recombinant LEMD3 fragment western blots (FLAG and V5 tags); format: cell-based, human; conditions: pFLAG-LEMD3-V5 transfected cells, inhibitor treatment, FIG. 4E
Excerpt: Western Blotting—For non-phosphoprotein western blots: cell lysates from tissue culture plastic or from 2 or 25 kPa, […] Petrisoft dishes (Matrigen, Brea, Calif.) were either: harvested directly in 4× protein loading buffer (Licor, Lincoln, Nebr.) supplemented with protease and phosphatase in-hibitors (#A32959, ThermoFisher, Waltham, Mass.) according to the manufacturer's instructions; or, processed with the NE-PER compartment isolation kit (ThermoFisher, Waltham, Mass.) according to the manufacturer's instructions. Lysates were treated with 0.3 μL of benzonuclease (ThermoFisher, Waltham, Mass.) for 15 minutes at room temperature with vigorous shaking. Samples were heated to 95 C for 5 minutes and run on a 4-12% Bis-Tris gel in 1×MES buffer and run for 70 minutes at 150V. The gel was then transferred to a nitro-cellulose membrane using the XCell Blot Module (ThermoFisher, Waltham, Mass.) at 25V for 65 min-utes. Membranes were air-dried for an hour, blocked with 5% non-fat milk in 1×PBS for an hour at room temperature, and then incubated with primary antibodies as described in Table 3 in 1×PBS-T with 1% milk for 16-24 hours at 4 C. Near-IR or HRP conjugated secondaries as described in Table 4 were then incubated with the blot and imaged subsequently on either an Odyssey CLx system for near-IR dyes (Licor, Lincoln, Nebr.) or a ChemiDoc MP system (Bio-Rad, Hercules, Calif.) with SuperSignal West Femto reagents (ThermoFisher, Waltham, Mass.) for HRP secondaries according to the manufacturer's instructions. Band analysis was performed using the associated Licor or Biorad software.
For recombinant LEMD3 western blots: Two samples of HFFs were prepared and electro-porated as above and plated onto each plastic or hydrogel surface for 12 hours (protease inhibitor experiments) or 24 hours (LEMD3 fragment abundance and deletion mutant experiments) before harvesting. qPCR—RNA was isolated from cultured cells using RNEasy Plus Mini kits (Qiagen, Hilden, Germany) according to the manufacturer's instructions. cDNA libraries were constructed using RT2 First Strand kit (Qiagen, Hilden, Germany) according to the manufacturer's instruction. 25 μL qPCR reactions were prepared using SYBR Green Master Mix (ThermoFisher, Waltham, Mass.) with 250 nM primers, listed in Table 3 and 10 ng input cDNA. Reactions were carried out on a StepOnePlus (ThermoFisher, Waltham, Mass.) for 40 cycles. Melt curves were visually inspected after each run to confirm a single, defined peak in the derivated intensity plot. Data from each run was imported into LinRegPCR, which performed baseline correction and measured PCR efficiency by amplicon group as described in (81). The relative number of transcripts was calculated by dividing the Cq threshold by the PCR efficiency for the reaction raised to the power of Cq, the cycle number at which the threshold is reached for a given target. For relative quantification be-tween conditions, LEMD3 transcripts were either: normalized for each condition to the mean of two reference genes, 18S and ACTB, if the samples were all from a single stiffness condition; or, normalized to 18S alone if substrate stiffness was an experimental condition.

Smad2/3-Smad4 complexes = assay: Smad2/3-Smad4 PLA; format: cell-based, human; conditions: 500 μg/mL, HFFs on 1 kPa hydrogels, relative to untreated HFFs, p=0.001
Method: (§1) In vitro PLA: Protein-protein PLA was per-formed with antibody pairs listed in Table 4 as described in (42) with the following modifications: cells were plated on FN-coated glass or hydrogels (Matrigen, Brea, Calif.). All primary antibody in-cubations were performed for 16-24 hours at 4 C and cells were counter-stained with 1:40 phalloidin-488 or phalloidin-546 in 1×PBS for 30 minutes at room temperature and/or further processed for IF imaging using the procedure recommended in Sigma's PLA Resource Center. […] Imaging and analysis were performed as described for high-resolution ex vivo PLA signals except that no tissue autofluorescence signal was measured or needed to be subtracted and, when appro-priate, other IF signal (e.g. FLAG) were measured in parallel. […] Instead the PLA signal was quantified as the PLA volume divided by the nuclear intensity for each image. Each data point represents at least 3 unique surfaces with at least 12 cells measured per surface. For Smad2/3-Smad4 experiments, only two independent hydrogels were analyzed for the “CTF 500 μg/mL” and “Neon 500 μg/mL” groups due to loss of hydrogels during processing. Each bar in FIG. 5D represents the mean with standard error of the mean for all the cells analyzed from that condition.

LEMD3-Smad2/3 complexes = assay: LEMD3-Smad2/3 proximity ligation assay (PLA); format: cell-based, human
Method: In vitro PLA: Protein-protein PLA was per-formed with antibody pairs listed in Table 4 as described in (42) with the following modifications: cells were plated on FN-coated glass or hydrogels (Matrigen, Brea, Calif.). All primary antibody in-cubations were performed for 16-24 hours at 4 C and cells were counter-stained with 1:40 phalloidin-488 or phalloidin-546 in 1×PBS for 30 minutes at room temperature and/or further processed for IF imaging using the procedure recommended in Sigma's PLA Resource Center. For all recombinant LEMD3 and C-terminal fragment experiments, HFFs were electroporated as above and allowed to culture for 24 hours on 10 μg/mL fibronectin coated glass or hydrogels before fixation. For LEMD3-phospho-Smad2/3, LEMD3-Smad2/3+TGFβ and for Smad2/3-Smad4 PLA assays: cells were treated 90 minutes before fixation with 50 μg/mL for LEMD3- and CTF-Smad2/3 assays, 100 μg/mL TGFβ for LEMD3-phospho-Smad2/3 experiments and 500 μg/mL TGFβ for Smad2/3-Smad4 experiments. For FLAG post-staining of PLA processed tissues, cells were blocked with unlabelled AffiniPure donkey anti-rabbit antibodies (Jackson ImmunoResearch, West Grove, Pa.) at a 1:10 dilution in 1×PBS-T at room temperature for 1 hour before further IF processing with 1:1000 rabbit anti-FLAG (#F7425, Sigma-Aldrich, Darmstadt, Germany) for 1 hour in PBS-T at room temperature. Following three washes with PBS-T for 5 minutes, each sample was stained with 1:500 goat anti-rabbit 546 in PBS-T for 1 hour at room temperature, washed again and then counter-stained as above. For V5 post-staining of PLA processed samples, cells were incubated with 1:200 647 labelled anti-V5 antibody (R&D Systems, Minneapolis, Minn.) diluted in PBS-T at room tem-perature for 1 hour before washing three times in PBS-T for 5 minutes each and then counter-stained as above. Imaging and analysis were performed as described for high-resolution ex vivo PLA signals except that no tissue autofluorescence signal was measured or needed to be subtracted and, when appro-priate, other IF signal (e.g. FLAG) were measured in parallel. For cells on Matrigen HTS plates (FIGS. 2c & 2d), the confluence of cells prevented identifying individual cell boundaries. Instead the PLA signal was quantified as the PLA volume divided by the nuclear intensity for each image. Each data point represents at least 3 unique surfaces with at least 12 cells measured per surface. For Smad2/3-Smad4 experiments, only two independent hydrogels were analyzed for the “CTF 500 μg/mL” and “Neon 500 μg/mL” groups due to loss of hydrogels during processing. Each bar in FIG. 5D represents the mean with standard error of the mean for all the cells analyzed from that condition.

[1] = system: LEMD3-phospho-Smad2/3 interactions; assay: LEMD3-phospho-Smad2/3 PLA; format: cell-based, human; conditions: 100 μg/mL, HFFs on glass, vs untreated fibroblasts, p=0.0333
Method: as §1

Smad-driven luciferase = Smad-driven luciferase assay on substrates of varying stiffness; format: cell-based, human
Method: Smad-Driven Luciferase Assays—HFFs were transfected with Cignal Lenti Reporter virus (Qiagen, Hilden, Germany) with a MOI of 40 and subsequently selected using 400 ng/mL puromycin until untransduced HFFs died. Stably transfected HFFs, with or without additional LEMD3-focused genetic treatments as described above, were plated at 10,000 cells/well on a HTS plate (Matrigen, Brea, Calif.) containing glass surfaces and polyacrylamide gels, which ranged in stiffness from 0.2 kPa to 50 kPa, all functionalized with 10 μg/mL plasma-purified human fibronectin according to the manufacturer's instruction. Cells adhered to the surfaces for 4 hours in serum-free DMEM supplemented with 1% BSA and 1% penicillin/streptomycin. Media was then supplemented with the desired amounts of TGFβ and, when applicable, with cytoskeletal agents as described in the results. HFFs were then incubated for 16 hours at 37 C before the luciferase re-action. Wells were supplemented to 2 mM VivoGlo d-luciferin (Promega, Madison, Wis.) using a plate reader controlled auto-injector system and light production was subsequently quantified every 5 minutes for 30 minutes on a Synergy H4 plate reader (BioTek, Winooski, Vt.). The raw luciferase signal was the median intensity measured over this timecourse minus the intensity from luciferase-transfected cells not treated with TGFβ to account for any TGFβ elaborated and activated by the cells in situ. Cells were then fixed with 4% paraformaldehyde, permeabilized with 0.1% Triton X-100, and then stained with 1:10,000 Hoechst 33342 in 1×PBS for 30 minutes at room temperature (ThermoFisher, Waltham, Mass.). The raw luciferase signal was then normalized to the nuclear signal, which was inside a linear standard curve form cells plated on glass and on polyacrylamide within each plate. Data for each condition was then fit to a three-parameter logistic equation using a least-squares minimization fit in Prism (Graph-Pad, La Jolla, Calif.). […] Otherwise, the trends across the maximal luciferase signal (“Top” variable from the model) or the mid-transition point observed between “Bottom” and “Top” signals (“EC50” variable from the model, called “transition point” in text), were statistically compared using an ANOVA with “Test for Trends,” which restricts the hypothesis testing to a particular order of the data-sets (e.g. max luciferase signal as a function of increasing TGFβ dose or transition point as a function of increased LEMD3 expression). Each data point represents at least three biological replicates.

Smad3 phosphorylation = assay: phospho-Smad3 to total Smad3 ratio by western blot; format: cell-based, human; conditions: 100 μg/mL for 90 minutes, relative to untreated HFFs, p=0.0506
Smad2/3 = assay: V5-Smad2/3 PLA with recombinant LEMD3 / CTF; format: cell-based, human; conditions: 50 μg/mL, 1 kPa or 25 kPa substrates, p=0.98 and p=0.99
Method: as §1

[2] = pulmonary fibrosis; cited from earlier work
[3] = 10 μM, relative to HFFs treated with TGFβ alone, FIG. 1D

With `CCOC(=O)[C@H]1O[C@@H]1C(=O)N[C@@H](CC(C)C)C(=O)NCCC(C)C` [E64d, E-64D] as the compound, how does the “85 kDa V5 fragment abundance” value (LEMD3) read?
The value was “potentiated”.

Which “60 kDa FLAG fragment relative to full length” value (LEMD3) does the source give for `CC(C)C[C@@H](C=O)NC(=O)[C@H](CC(C)C)NC(=O)[C@H](CC(C)C)NC(=O)OCc1ccccc1` [MG-132] (Cbz-Leu-Leu-Leu-aldehyde) here?
Its value is “also reduced”.

For `CNC(=O)C(CCc1ccccc1)NC(=O)C(CC(=O)NO)CC(C)C` (stereo not drawn) [MMPi], which “85 kDa V5 fragment abundance” value (LEMD3) is on record?
The value was “potentiated”.

Which results are given for “TGFβ: Recombinant human TGF-β, R&D Systems 240-B”?
Smad2/3-Smad4 complexes (Smad2/3-Smad4 complexes): increase; LEMD3-Smad2/3 interactions with TGFβ dosing (LEMD3-Smad2/3 complexes; 50 μg/mL, 1 kPa and 25 kPa hydrogels): unperturbed by TGFβ dosing; LEMD3-phospho-Smad2/3 interactions [1]: significantly higher; TGFβ dose-response of luminescence (Smad-driven luciferase; HFFs on stiff substrates, p<0.0001, FIG. 1B): increasing luminescence with increasing TGFβ dose; shift of the sigmoid transition point with increasing pg/mL doses (Smad-driven luciferase; HFFs, p=0.07, FIG. 1B): shift the transition point of the sigmoid towards softer substrates; stiffness at which transition points occurred (Smad-driven luciferase; pg/mL dose-range of TGFβ): 1-4 kPa; ratio of phospho-Smad3 to total Smad3 (Smad3 phosphorylation): increased the ratio of phospho-Smad3 to total Smad3; CTF-Smad2/3 interaction frequency with TGFβ dosing (Smad2/3): did not significantly vary

Which “60 kDa FLAG fragment relative to full length” value (LEMD3) does the source give for `O=c1oc(Cl)c(Cl)c2ccccc12` [DCI, 3,4 dichloroisocoumarin] here?
Its value is “reduced”.

Which “46 kDa V5 fragment abundance” value (LEMD3) does the source give for `CC[C@H](CO)Nc1nc(NCc2ccccc2)c2ncn(C(C)C)c2n1` [roscovitine] here?
Its value is “significantly increasing”.

What about the “60 kDa FLAG fragment relative to full length” value (LEMD3) of the same compound?
The value was “significantly reducing”.

For `C/C1=C\[C@H](C)C[C@H](C)OC(=O)C[C@H](c2ccc(O)cc2)NC(=O)[C@@H](Cc2c(Br)[nH]c3ccccc23)N(C)C(=O)[C@H](C)NC(=O)[C@@H](C)C1` [jasplakinolide, Jasplakinolide], which “LEMD3-Smad2/3 interactions, total” value (LEMD3-Smad2/3 complexes; 100 nM and 200 nM for 2 hours, 1 kPa hydrogels, vs DMSO p<0.0001) is on record?
Its value is “dose-dependent decrease”.

What about the “LEMD3-Smad2/3 complex formation, cytoplasm” value (LEMD3-Smad2/3 complexes; 100 nM and 200 nM, 1 kPa hydrogels, vs DMSO p<0.0001) of the same compound?
Its value is “Significant reductions”.

What about the “LEMD3-Smad2/3 complex formation, nucleus” value (LEMD3-Smad2/3 complexes; 100 nM p=0.0466, 200 nM p=0.002 vs DMSO, 1 kPa hydrogels) of the same compound?
The value was “Significant reductions”.

With `Cc1ccc(=O)n(-c2ccccc2)c1` [Pirfenidone] as the compound, how does the disease progression [2] read?
Its disease progression is “slowing of disease progression”.

With `Cc1ccc2c(c1)C(=O)C1(O)CCN(c3ccccc3)C1=N2` (stereo not drawn) [blebbistatin, Blebbistatin] as the compound, how does the maximal luminescence (Smad-driven luciferase; [3]) read?
The maximal luminescence was “nor increase the maximal luminescence”.

What about the transition point (Smad-driven luciferase; [3]) of the same compound?
The transition point was “did not significantly shift”.

What does the source list for `C=C1[C@@H](C)[C@H]2[C@H](Cc3ccccc3)NC(=O)[C@]23[C@H](OC(C)=O)/C=C/[C@@](C)(O)C(=O)[C@@H](C)C/C=C/[C@H]3[C@@H]1O` [cytochalasin D, Cytochalasin D]?
total frequency of LEMD3-Smad2/3 complexes (LEMD3-Smad2/3 complexes; 2 μM for 90 minutes, fibroblasts on glass, p=0.0089): increase; frequency of LEMD3-Smad2/3 complexes, cytosolic compartment (LEMD3-Smad2/3 complexes; 2 μM for 90 minutes, glass, p=0.0871): also increased; frequency of LEMD3-Smad2/3 complexes, nuclear compartment (LEMD3-Smad2/3 complexes; 2 μM for 90 minutes, glass, p=0.5657): also increased; luminescent profile over increasing ECM stiffness (Smad-driven luciferase; 2 μM, FIG. 1D, data did not converge to a sigmoidal model): low, flat luminescent profile
